Laboratory results: patent publication US20230331762A1, “CRYSTALLINE FORM OF ASPACYTARABINE” (Biosight Ltd., priority 2020, published 2023)
“Also recorded” adds a separate entry of the source. Where two headings read alike, the source gives them in different places.

Experiments:
Type in all cases: physicochemical
Solubility in water = test: Solubility in water
[1] = Thermodynamic stability of the solid form; conditions: crystalline vs amorphous
[2] = Solubility in organic solvents
[3] = Decomposition in solvents

N[C@@H](CC(=O)Nc1ccn([C@@H]2O[C@H](CO)[C@@H](O)[C@@H]2O)c(=O)n1)C(=O)O [Form B, (S)-2-amino-4-((1-((2R,3S,4S,5R)-3,4-dihydroxy-5-(hydroxymethyl)tetrahydrofuran-2-yl)-2-oxo-1,2-dihydropyrimidin-4-yl)amino)-4-oxobutanoic acid]
solubility in water (Solubility in water): up to 2%
solubility in water (Solubility in water; result in words): insoluble; also recorded: not soluble
thermodynamic stability [1]: thermodynamically more stable than the amorphous form
solubility in DCM ([2]; DCM): not soluble
solubility in EtOH ([2]; EtOH): not soluble
solubility in MeOH ([2]; MeOH): not soluble
solubility in NMP ([2]; NMP): soluble
solubility in THF ([2]; THF): not soluble
solubility in an amide solvent ([2]; amide solvent): soluble
solubility in ethyl acetate ([2]; ethyl acetate): not soluble
solubility in most organic solvents ([2]; most organic solvents): non soluble; also recorded: insoluble; also recorded: not soluble
solubility in toluene ([2]; toluene): not soluble

Cl.N[C@@H](CC(=O)Nc1ccn([C@@H]2O[C@H](CO)[C@@H](O)[C@@H]2O)c(=O)n1)C(=O)O [aspacytarabine-HCl]
decomposition in DMF ([3]; strong polar aprotic solvent DMF): decompose
decomposition in DMSO ([3]; strong polar aprotic solvent DMSO): decompose
decomposition in water ([3]; water, rate is determined by heat and time): decompose
